From ChEMBL document CHEMBL3769405, “Discovery of Potent and Selective Inhibitors of Phosphodiesterase 1 for the Treatment of Cognitive Impairment Associated with Neurodegenerative and Neuropsychiatric Diseases” (J Med Chem, 2016)
≈ marks a conversion by molar mass, not a printed value.

Columns and labels:
[1] = Cmax in C57BL/6 mouse brain at 10 mg/kg administered through oral gavage; type: ADME, organism-based; design: dose 10 mg/kg, route oral
[2] = Half time in Sprague-Dawley rat at 9.75 mg/kg administered through oral gavage; type: ADME, organism-based; details: in vivo
[3] = Intrinsic clearance in human liver microsomes; type: ADME; details: read-out: CLH
[4] = AUClast in C57BL/6 mouse plasma at 10 mg/kg administered through oral gavage; type: ADME, organism-based; design: dose 10 mg/kg, time 0 - last, route oral
[5] = AUClast in C57BL/6 mouse brain at 10 mg/kg administered through oral gavage; type: ADME, organism-based; design: dose 10 mg/kg, time 0 - last, route oral
[6] = Tmax in Sprague-Dawley rat at 9.75 mg/kg administered through oral gavage; type: ADME, organism-based; details: in vivo
[7] = Volume of distribution in Sprague-Dawley rat at 1 mg/kg, iv; type: ADME, organism-based; details: in vivo
[8] = Oral bioavailability in Sprague-Dawley rat at 9.75 mg/kg administered through gavage; type: ADME, organism-based; details: in vivo
[9] = Lipophilicity, logD of compound at pH 7.4; type: physicochemical; details: buffer
[10] = biological target: cGMP-specific 3',5'-cyclic phosphodiesterase (Homo sapiens, UniProt O76074); experiment: Inhibition of recombinant full lenght human PDE5A using fluorescent labeled cGMP as substrate after 15 mins by IMAP assay
[11] = AUC(infinity) in Sprague-Dawley rat at 9.75 mg/kg administered through oral gavage; type: ADME, organism-based; design: dose 9.75 mg/kg, route oral, time infinity; details: in vivo
Rattus norvegicus = experiment: Increase in cognitive performance in ip dosed Sprague-Dawley rat after 60 mins by novel object recognition test; type: functional; details: 1 h, read-out: MED
[12] = Cmax in C57BL/6 mouse plasma at 10 mg/kg administered through oral gavage; type: ADME, organism-based; design: dose 10 mg/kg, route oral
[13] = AUC(infinity) in Sprague-Dawley rat at 1 mg/kg, iv; type: ADME, organism-based; design: dose 1 mg/kg, time infinity, route intravenous; details: in vivo
[14] = Lipophilicity, logD of compound at pH 1.7; type: physicochemical; details: buffer
[15] = Cmax in Sprague-Dawley rat at 9.75 mg/kg administered through oral gavage; type: ADME, organism-based; design: dose 9.75 mg/kg, route oral; details: in vivo
[16] = Clearance in Sprague-Dawley rat at 1 mg/kg, iv; type: ADME, organism-based; details: in vivo
[17] = Solubility of compound in PBS; type: physicochemical
[18] = Inhibition of bovine brain PDE1 using fluorescent labeled cGMP as substrate after 15 mins by IMAP assay; design: species or system Bos taurus
[19] = Half time in Sprague-Dawley rat at 1 mg/kg, iv; type: ADME, organism-based; details: in vivo
[20] = biological target: High affinity cAMP-specific and IBMX-insensitive 3',5'-cyclic phosphodiesterase 8A (Homo sapiens, UniProt O60658); experiment: Inhibition of recombinant full lenght human PDE8A using fluorescent labeled cAMP as substrate after 15 mins by IMAP assay
Chain of High affinity cAMP-specific and IBMX-insensitive 3',5'-cyclic phosphodiesterase 8A (O60658 whole entry): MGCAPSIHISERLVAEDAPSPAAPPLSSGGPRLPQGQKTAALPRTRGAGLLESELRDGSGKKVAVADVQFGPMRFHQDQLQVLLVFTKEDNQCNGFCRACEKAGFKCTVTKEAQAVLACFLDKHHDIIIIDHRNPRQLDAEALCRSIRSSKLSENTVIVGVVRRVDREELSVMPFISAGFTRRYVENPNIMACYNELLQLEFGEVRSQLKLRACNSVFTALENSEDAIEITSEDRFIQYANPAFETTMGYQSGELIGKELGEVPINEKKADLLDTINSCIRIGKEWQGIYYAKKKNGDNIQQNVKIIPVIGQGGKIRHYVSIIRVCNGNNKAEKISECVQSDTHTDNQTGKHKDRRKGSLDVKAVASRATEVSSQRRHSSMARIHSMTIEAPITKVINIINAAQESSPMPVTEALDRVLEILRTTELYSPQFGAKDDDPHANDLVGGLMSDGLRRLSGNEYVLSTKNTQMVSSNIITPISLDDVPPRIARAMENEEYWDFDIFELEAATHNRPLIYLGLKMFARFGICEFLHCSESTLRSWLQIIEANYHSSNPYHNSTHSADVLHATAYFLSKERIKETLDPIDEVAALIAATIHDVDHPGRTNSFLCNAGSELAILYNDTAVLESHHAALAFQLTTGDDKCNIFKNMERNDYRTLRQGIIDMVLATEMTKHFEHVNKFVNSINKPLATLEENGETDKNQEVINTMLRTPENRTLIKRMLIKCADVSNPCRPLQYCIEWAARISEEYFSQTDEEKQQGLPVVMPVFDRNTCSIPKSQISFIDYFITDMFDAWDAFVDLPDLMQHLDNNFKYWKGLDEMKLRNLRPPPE

[21] = biological target: cGMP-dependent 3',5'-cyclic phosphodiesterase (Homo sapiens, UniProt O00408); experiment: Inhibition of recombinant full length human PDE2A using fluorescent labeled cAMP as substrate after 15 mins by IMAP assay
Chain of cGMP-dependent 3',5'-cyclic phosphodiesterase (O00408 whole entry): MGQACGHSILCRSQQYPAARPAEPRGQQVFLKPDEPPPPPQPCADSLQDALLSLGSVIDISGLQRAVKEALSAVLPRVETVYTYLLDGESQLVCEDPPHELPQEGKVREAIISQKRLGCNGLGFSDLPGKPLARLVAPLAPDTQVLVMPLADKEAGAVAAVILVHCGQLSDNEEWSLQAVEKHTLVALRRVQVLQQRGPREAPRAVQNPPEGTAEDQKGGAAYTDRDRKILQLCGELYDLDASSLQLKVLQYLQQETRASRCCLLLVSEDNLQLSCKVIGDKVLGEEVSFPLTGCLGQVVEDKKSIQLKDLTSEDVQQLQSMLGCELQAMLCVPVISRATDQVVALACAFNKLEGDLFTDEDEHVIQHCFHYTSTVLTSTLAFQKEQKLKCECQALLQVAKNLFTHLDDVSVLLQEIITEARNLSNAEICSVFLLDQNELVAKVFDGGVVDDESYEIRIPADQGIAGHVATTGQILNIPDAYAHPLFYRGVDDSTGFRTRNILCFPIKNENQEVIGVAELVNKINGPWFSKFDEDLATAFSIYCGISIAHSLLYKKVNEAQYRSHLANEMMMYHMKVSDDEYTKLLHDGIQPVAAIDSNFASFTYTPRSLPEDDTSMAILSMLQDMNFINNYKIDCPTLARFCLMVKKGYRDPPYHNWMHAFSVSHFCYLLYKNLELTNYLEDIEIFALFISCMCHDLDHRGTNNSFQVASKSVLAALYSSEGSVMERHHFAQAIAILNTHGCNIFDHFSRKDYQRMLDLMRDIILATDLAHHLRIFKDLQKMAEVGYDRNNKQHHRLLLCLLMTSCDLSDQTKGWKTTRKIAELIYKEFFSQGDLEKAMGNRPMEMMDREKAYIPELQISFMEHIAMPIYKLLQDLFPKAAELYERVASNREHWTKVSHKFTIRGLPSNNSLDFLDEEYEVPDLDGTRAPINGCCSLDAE

[22] = Inhibition of bovine retinal PDE6 using fluorescent labeled cGMP as substrate after 15 mins by IMAP assay
[23] = biological target: cAMP and cAMP-inhibited cGMP 3',5'-cyclic phosphodiesterase 10A (Homo sapiens, UniProt Q9Y233); experiment: Inhibition of recombinant full lenght human PDE10A using fluorescent labeled cAMP as substrate after 15 mins by IMAP assay
Chain of cAMP and cAMP-inhibited cGMP 3',5'-cyclic phosphodiesterase 10A (Q9Y233 whole entry): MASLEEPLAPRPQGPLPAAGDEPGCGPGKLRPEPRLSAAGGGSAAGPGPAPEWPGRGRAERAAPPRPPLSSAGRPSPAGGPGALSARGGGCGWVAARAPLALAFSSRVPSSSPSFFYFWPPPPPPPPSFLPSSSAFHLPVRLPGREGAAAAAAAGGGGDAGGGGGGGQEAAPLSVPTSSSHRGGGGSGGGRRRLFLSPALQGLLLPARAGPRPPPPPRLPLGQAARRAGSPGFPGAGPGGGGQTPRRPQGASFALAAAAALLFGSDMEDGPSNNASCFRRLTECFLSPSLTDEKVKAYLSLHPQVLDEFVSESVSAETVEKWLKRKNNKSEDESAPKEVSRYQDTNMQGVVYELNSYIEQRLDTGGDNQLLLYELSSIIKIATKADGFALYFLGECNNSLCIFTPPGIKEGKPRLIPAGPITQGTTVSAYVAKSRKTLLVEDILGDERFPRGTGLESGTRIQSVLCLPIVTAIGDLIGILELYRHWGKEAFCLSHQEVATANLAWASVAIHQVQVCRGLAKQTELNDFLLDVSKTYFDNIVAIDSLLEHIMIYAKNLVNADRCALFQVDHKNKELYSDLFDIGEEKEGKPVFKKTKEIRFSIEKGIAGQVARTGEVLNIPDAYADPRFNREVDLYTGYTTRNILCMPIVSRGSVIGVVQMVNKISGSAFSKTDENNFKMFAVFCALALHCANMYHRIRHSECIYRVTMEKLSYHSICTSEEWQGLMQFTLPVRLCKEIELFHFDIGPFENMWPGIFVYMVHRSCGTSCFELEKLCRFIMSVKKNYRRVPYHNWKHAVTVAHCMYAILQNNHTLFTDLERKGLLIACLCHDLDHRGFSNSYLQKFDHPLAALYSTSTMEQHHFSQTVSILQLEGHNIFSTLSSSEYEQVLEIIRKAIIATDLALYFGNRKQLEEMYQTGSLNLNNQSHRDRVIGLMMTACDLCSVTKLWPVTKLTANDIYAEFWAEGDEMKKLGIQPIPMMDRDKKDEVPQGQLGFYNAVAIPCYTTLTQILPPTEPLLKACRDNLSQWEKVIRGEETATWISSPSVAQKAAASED

[24] = biological target: 3',5'-cyclic-AMP phosphodiesterase 4A (Homo sapiens, UniProt P27815); experiment: Inhibition of recombinant full lenght human PDE4A using fluorescent labeled cAMP as substrate after 15 mins by IMAP assay
[25] = biological target: cGMP-inhibited 3',5'-cyclic phosphodiesterase 3B (Homo sapiens, UniProt Q13370); experiment: Inhibition of recombinant full length human PDE3B using fluorescent labeled cAMP as substrate after 15 mins by IMAP assay
Chain of cGMP-inhibited 3',5'-cyclic phosphodiesterase 3B (Q13370 whole entry): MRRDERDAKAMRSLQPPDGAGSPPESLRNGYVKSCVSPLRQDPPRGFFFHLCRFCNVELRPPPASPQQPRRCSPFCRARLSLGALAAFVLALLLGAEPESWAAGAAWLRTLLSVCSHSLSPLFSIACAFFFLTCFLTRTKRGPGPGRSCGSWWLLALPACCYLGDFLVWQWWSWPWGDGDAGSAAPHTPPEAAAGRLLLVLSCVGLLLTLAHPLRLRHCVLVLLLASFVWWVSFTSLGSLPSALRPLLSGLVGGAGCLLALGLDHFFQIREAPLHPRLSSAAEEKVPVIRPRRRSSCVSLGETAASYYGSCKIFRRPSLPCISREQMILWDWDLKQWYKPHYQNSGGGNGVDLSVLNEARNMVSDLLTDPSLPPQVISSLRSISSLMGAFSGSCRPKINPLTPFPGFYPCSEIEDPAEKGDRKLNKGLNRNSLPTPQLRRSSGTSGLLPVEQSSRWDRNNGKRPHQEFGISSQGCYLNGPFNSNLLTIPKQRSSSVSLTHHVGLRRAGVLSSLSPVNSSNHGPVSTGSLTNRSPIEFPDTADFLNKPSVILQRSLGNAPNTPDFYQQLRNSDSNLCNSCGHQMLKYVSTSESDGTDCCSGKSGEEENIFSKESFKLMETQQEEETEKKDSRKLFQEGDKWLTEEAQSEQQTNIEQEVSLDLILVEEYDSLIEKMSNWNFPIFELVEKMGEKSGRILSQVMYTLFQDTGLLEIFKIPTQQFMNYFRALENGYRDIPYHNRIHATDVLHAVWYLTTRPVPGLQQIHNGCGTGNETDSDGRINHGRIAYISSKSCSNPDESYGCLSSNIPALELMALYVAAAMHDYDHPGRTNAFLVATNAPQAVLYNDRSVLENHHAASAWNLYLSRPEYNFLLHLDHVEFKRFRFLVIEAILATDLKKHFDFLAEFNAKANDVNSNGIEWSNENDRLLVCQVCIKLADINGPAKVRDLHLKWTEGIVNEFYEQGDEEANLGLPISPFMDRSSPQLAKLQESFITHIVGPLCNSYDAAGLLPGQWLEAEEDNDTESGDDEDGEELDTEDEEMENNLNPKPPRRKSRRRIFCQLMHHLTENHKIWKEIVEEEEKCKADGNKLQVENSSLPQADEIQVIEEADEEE

[26] = biological target: 3',5'-cyclic-AMP phosphodiesterase 7B (Homo sapiens, UniProt Q9NP56); experiment: Inhibition of recombinant full lenght human PDE7B using fluorescent labeled cAMP as substrate after 15 mins by IMAP assay
Chain of 3',5'-cyclic-AMP phosphodiesterase 7B (Q9NP56 whole entry): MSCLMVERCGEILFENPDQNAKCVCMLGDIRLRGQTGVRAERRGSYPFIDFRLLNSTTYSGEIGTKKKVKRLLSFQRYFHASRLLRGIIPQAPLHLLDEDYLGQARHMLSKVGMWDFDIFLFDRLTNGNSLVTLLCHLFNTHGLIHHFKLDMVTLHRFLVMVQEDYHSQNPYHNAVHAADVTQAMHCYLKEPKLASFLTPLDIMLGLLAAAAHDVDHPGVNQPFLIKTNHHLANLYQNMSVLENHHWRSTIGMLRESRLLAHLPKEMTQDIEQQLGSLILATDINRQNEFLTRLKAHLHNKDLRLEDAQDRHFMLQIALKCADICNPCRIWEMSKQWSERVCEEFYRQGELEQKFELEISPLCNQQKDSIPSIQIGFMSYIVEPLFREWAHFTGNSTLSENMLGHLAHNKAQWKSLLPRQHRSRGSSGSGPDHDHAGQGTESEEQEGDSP

[27] = biological target: High affinity cGMP-specific 3',5'-cyclic phosphodiesterase 9A (Homo sapiens, UniProt O76083); experiment: Inhibition of recombinant full lenght human PDE9A using fluorescent labeled cGMP as substrate after 15 mins by IMAP assay
Chain of High affinity cGMP-specific 3',5'-cyclic phosphodiesterase 9A (O76083 whole entry): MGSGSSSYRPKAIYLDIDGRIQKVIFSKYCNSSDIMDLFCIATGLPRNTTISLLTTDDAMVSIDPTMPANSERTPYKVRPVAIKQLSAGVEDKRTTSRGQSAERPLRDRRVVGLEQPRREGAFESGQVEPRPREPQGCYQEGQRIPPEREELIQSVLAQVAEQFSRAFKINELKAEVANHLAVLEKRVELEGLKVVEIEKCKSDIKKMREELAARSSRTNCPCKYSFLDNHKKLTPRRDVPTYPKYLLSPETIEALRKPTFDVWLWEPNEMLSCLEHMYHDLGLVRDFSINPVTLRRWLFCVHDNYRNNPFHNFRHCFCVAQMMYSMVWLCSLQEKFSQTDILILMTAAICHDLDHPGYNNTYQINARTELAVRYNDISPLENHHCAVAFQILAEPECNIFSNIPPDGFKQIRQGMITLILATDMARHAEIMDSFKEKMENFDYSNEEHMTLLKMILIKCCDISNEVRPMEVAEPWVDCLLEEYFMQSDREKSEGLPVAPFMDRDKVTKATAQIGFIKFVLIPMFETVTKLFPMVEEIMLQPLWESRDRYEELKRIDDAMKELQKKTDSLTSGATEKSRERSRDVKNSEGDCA

SMILES	Cmax [1] [ng/mL]	half-life [2] [min]	CLint scaled [3] [mL/min/kg]	AUC(0-t) [4] [ng·h/mL]	AUC(0-t) [5] [ng·h/mL]	Tmax [6] [min]	Vd [7] [L/kg]	bioavailability [8] [%]	logD [9]	Ki [10] [nM]	AUC(0-inf) [11] [ng·h/mL]	Cmax [12] [ng/mL]	AUC(0-inf) [13] [ng·h/mL]	logD [14]	Cmax [15] [ng/mL]	clearance [16] [mL/min/kg]	solubility [17] [µM]	Ki [18] [nM]	half-life [19] [min]	Ki [20] [µM]	other results
CN1C(=O)c2c(nn(Cc3ccc(-c4cccc(F)n4)cc3)c2Nc2ccccc2)N2C1=N[C@@H]1CCC[C@@H]12.O=P(O)(O)O [LENRISPODUN PHOSPHATE]	387	90	78	826	588	45	6.83	28	4.41	630	802	490	300	1.27	252	55	22	0.058	84		minimal effective dose (Rattus norvegicus): 3 mg/kg
CN1C(=O)c2c(nn(Cc3ccc(-c4ccccn4)cc3)c2Nc2ccccc2)N2C1=N[C@@H]1CCC[C@@H]12	28	90	189	65	21	30	2.48	16	3.54	600	636	48	420	-0.58	158	40	> 100	0.085	43.2	8.2	Ki [21]: 24 µM; Ki [22]: 430 nM; Ki [23]: 2.7 µM; Ki [24]: 240 nM; Ki [25]: 1.2 µM; Ki [26]: 300 nM; Ki [27]: 6.1 µM
CN1C(=O)c2c(nn(Cc3ccc(C(F)(F)F)cc3)c2Nc2ccccc2)N2C1=N[C@@H]1CCC[C@@H]12	285	90	139	122	548	15	7.44	8	4.47	590	214	60	271	1.16	75	62	35 (≈ 16.8 µg/mL)	0.88	84	54	Ki [21]: 39 µM; Ki [22]: 1600 nM; Ki [23]: 5.4 µM; Ki [24]: 930 nM; Ki [25]: 30 µM; Ki [26]: 1200 nM; Ki [27]: 50 µM
